According to publication doi:10.1101/2024.07.29.605666v2, “Effects of two different compounds on seizure suppression using the zebrafish PTZ-seizure model” (bioRxiv, 2024):

How the values were obtained:
Assay type in all cases: in vivo, zebrafish (Danio rerio)
casp9 = experiment: RT-qPCR of casp9 transcript in larval heads after PTZ-induced seizures; conditions: tripeptide 24 h, then 15 mM PTZ 20 min; significant effects at 10 and 5 μg/mL; n = 5 pools of five heads; vs PTZ group
Experimental: (§1) For all compounds, zebrafish larvae at 6 days post-fertilization (dpf) were randomly placed into Petri dishes, each one containing 25 larvae. The larvae were incubated in the respective solutions and concentrations for 24h (as specified in Table 1) prior to seizure induction. The temperature and photoperiod conditions were consistent with those described for the adult zebrafish. The study groups consisted of the Control Group (CG), PTZ Group (PTZ), Treatment 1, Treatment 2, and Treatment 3. Treatments 1 to 3 employed the previously determined concentrations mentioned above.
(§2) Seizure induction followed the pretreatment of the compounds. […]
(§3) Immediately after PTZ exposure, fish were cryo-anesthetized and their heads were cut, collected, and then incubated in TRIzol® (Invitrogen, Carlsbad, CA, USA). […] The concentration and quality were determined using the Epoch™ spectrophotometer (BioTek, Winooski, VT, USA) and gel electrophoresis.
(§4) The synthesis of cDNA was carried out using the High-Capacity cDNA Reverse Transcription kit (Applied Biosystems™, Califórnia, USA) following the manufacturer’s instructions. Quantitative PCR (qPCR) was performed using the SYBR ® Green Master Mix reagent (Bio-Rad) using the ABI 7500 system (Applied Biosystems, Foster City, CA, USA). […] Data were evaluated using 7500 software v2.03 (Applied Biosystems). […]

baxa = experiment: RT-qPCR of baxa transcript in larval heads after PTZ-induced seizures; conditions: tripeptide 10 μg/mL 24 h, then 15 mM PTZ 20 min; no statistical difference detected; n = 5
Experimental: as §1, §2, §3, §4

zebrafish larvae = experiment: PTZ-induced seizure behaviour (latency and number of seizures) after 24 h compound pretreatment; conditions: tripeptide 25, 10 and 5 μg/mL, 24 h pretreatment, then 15 mM PTZ, 10 min visual observation; vs PTZ group
Experimental: as §1
Seizure induction followed the pretreatment of the compounds. Larvae with 7 dpf were carefully transferred to a 96-well plate filled with 100 μL of aquarium water, with one larva per well. Subsequently, 100 μL of 30 mM of the proconvulsant agent pentylenetetrazol (PTZ) (Sigma-Aldrich, St. Louis, MO, USA) was added to each well, resulting in a final concentration of 15 mM of PTZ. The larvae were exposed to PTZ for 20 minutes. The control group underwent the same procedure but in PTZ-free water.
The latency and number of seizures were monitored through visual observation, following the method described by Barbalho et al., 2016a. […] Larvae were evaluated for 10 minutes of PTZ exposure, and a complete seizure was considered when they reached stage 3.

il1b = experiment: RT-qPCR of il1b transcript in larval heads after PTZ-induced seizures; conditions: tripeptide 24 h, then 15 mM PTZ 20 min; significant effects at 10 and 5 μg/mL; n = 5 pools of five heads; vs PTZ group
Experimental: as §1, §2, §3, §4

casp3a = experiment: RT-qPCR of casp3a transcript in larval heads after PTZ-induced seizures; conditions: tripeptide 10 μg/mL 24 h, then 15 mM PTZ 20 min; no statistical difference detected; n = 5
Experimental: as §1, §2, §3, §4

bcl2a = experiment: RT-qPCR of bcl2a transcript in larval heads after PTZ-induced seizures; conditions: tripeptide 10 μg/mL 24 h, then 15 mM PTZ 20 min; no statistical difference detected; n = 5
Experimental: as §1, §2, §3, §4

In the case of Glu-Val-Trp [Tripeptide], the “casp9 gene expression (RQ = 2-ΔΔCT)” value (casp9) is reported as “downregulation”, the “baxa gene expression (RQ = 2-ΔΔCT)” value (baxa) is reported as “roughly equivalent to or slightly higher than those of the PTZ group” and the number of seizures (zebrafish larvae) is reported as “No statistical significance was found”. For the same substance, the “seizure latency (time to stage 3 seizure-like activity)” value (zebrafish larvae) was “No statistical significance was found”, the “il1b gene expression (RQ = 2-ΔΔCT)” value (il1b) was “downregulation” and the “casp3a gene expression (RQ = 2-ΔΔCT)” value (casp3a) was “roughly equivalent to or slightly higher than those of the PTZ group”. The “bcl2a gene expression (RQ = 2-ΔΔCT)” value (bcl2a) was “roughly equivalent to or slightly higher than those of the PTZ group”.
